Measured values published in publication PMC6155162, “Identification of mesothelioma-specific sialylated epitope recognized with monoclonal antibody SKM9-2 in a mucin-like membrane protein HEG1” (Scientific Reports, 2018).

B1: 3 kb: FLAG-tagged N-terminal deletion mutant hHEG1 (285-1481) (protein)
chain: MSALLILALVGAAVADYKDDDDKLAAANSSIDLSWLHFYRTAASSPLLDLSSSSESTEKLNNSTGLQSSSVSQTKTMHVATVFTDGGPRTLRSLTVSLGPVSKTEGFPKDSRIATTSSSVLLSPSAVESRRNSRVTGNPGDEEFIEPSTENEFGLTSLRWQNDSPTFGEHQLASSSEVQNGSPMSQTETVSRSVAPMRGGEITAHWLLTNSTTSADVTGSSASYPEGVNASVLTQFSDSTVQSGGSHTALGDRSYSESSSTSSSESLNSSAPRGERSIAGISYGQVRGTAIEQRTSSDHTDHTYLSSTFTKGERALLSITDNSSSSDIVESSTSYIKISNSSHSEYSSFFHAQTERSNISSYDGEYAQPSTESPVLHTSNLPSYTPTINMPNTSVVLDTDAEFVSDSSSSSSSSSSSSSSSSSSSSGPPLPLPSVSQSHHLFSSILPSTRASVHLLKSTSDASTPWSSSPSPLPVSLTTSTSAPLSVSQTTLPQSSSTPV
B2: 2.2 kb: FLAG-tagged N-terminal deletion mutant hHEG1 (712-1481) (protein)
chain: MSALLILALVGAAVADYKDDDDKLAAANSSIDLSSYDGEYAQPSTESPVLHTSNLPSYTPTINMPNTSVVLDTDAEFVSDSSSSSSSSSSSSSSSSSSSSGPPLPLPSVSQSHHLFSSILPSTRASVHLLKSTSDASTPWSSSPSPLPVSLTTSTSAPLSVSQTTLPQSSSTPVLPRARETPVTSFQTSTMTSFMTMLHSSQTADLKSQSTPHQEKVITESKSPSLVSLPTESTKAVTTNSPLPPSLTESSTEQTLPATSTNLAQMSPTFTTTILKTSQPLMTTPGTLSSTASLVTGPIAVQTTAGKQLSLTHPEILVPQISTEGGISTERNRVIVDATSGLIPLTSVPTSAKEMTTKLGVTAEYSPASRSLGTSPSPQTTVVSTAEDLAPKSATFAVQSSTQSPTTLSSSASVNSCAVNPCLHNGECVADNTSRGYHCRCPPSWQGDDCSVDVNECLSNPCPSTAMCNNTQGSFICKCPVGYQLEKGICNLVRTFVTEF
B3: 2 kb: FLAG-tagged N-terminal deletion mutant hHEG1 (771-1481) (protein)
chain: MSALLILALVGAAVADYKDDDDKLAAANSSIDLSSGPPLPLPSVSQSHHLFSSILPSTRASVHLLKSTSDASTPWSSSPSPLPVSLTTSTSAPLSVSQTTLPQSSSTPVLPRARETPVTSFQTSTMTSFMTMLHSSQTADLKSQSTPHQEKVITESKSPSLVSLPTESTKAVTTNSPLPPSLTESSTEQTLPATSTNLAQMSPTFTTTILKTSQPLMTTPGTLSSTASLVTGPIAVQTTAGKQLSLTHPEILVPQISTEGGISTERNRVIVDATSGLIPLTSVPTSAKEMTTKLGVTAEYSPASRSLGTSPSPQTTVVSTAEDLAPKSATFAVQSSTQSPTTLSSSASVNSCAVNPCLHNGECVADNTSRGYHCRCPPSWQGDDCSVDVNECLSNPCPSTAMCNNTQGSFICKCPVGYQLEKGICNLVRTFVTEFKLKRTFLNTTVEKHSDLQEVENEITKTLNMCFSALPSYIRSTVHASRESNAVVISLQTTFSLASN

Tests used:
[1] = test system: SKM9-2; assay: Western blotting using SKM9-2 of HEG1 truncated mutants and epitope-fused GPI-anchor proteins; assay type: binding; conditions: cell lysates of transfected HEK293T, SDS-PAGE under reducing conditions, 1 µg/mL SKM9-2
Excerpt: Figure 1 SKM9-2 binding to truncated mutants of HEG1. Schematics of full-length HEG1 (Full) and the truncated mutants are indicated on the left side and the results of western blotting using SKM9-2 are shown on the right side. Truncated amino acid position, which is based on a full-length variant of HEG1 containing exon 6, is shown as a number in the schematic of domain structure. The region of the SKM9-2 epitope is shown as a red square. […] SLURP GPI-anchor protein[18] was used as a fused GPI-anchor protein (violet square). The terminal sequences of the HEG1 peptide are shown in the western blot lane. The samples were resolved by 6% SDS-PAGE (a and b) or 4–15% SDS-PAGE (c) under reducing conditions and were detected by western blotting using SKM9-2. Cyt, cytoplasmic domain; EGFs, EGF related domains; Ser/Thr, serine/threonine rich region; SLURP, secreted lymphocyte antigen-6/urokinase-type plasminogen activator receptor-related peptide; SP, signal peptide; TM, transmembrane domain. Full-length blots are presented in Supplementary Fig. S7.
Figure 2 Epitope mapping of SKM9-2. Schematic of epitope peptides (left side) and western blots resolved by 4–15% SDS-PAGE (right side) are shown. The HEG1 peptide sequences are indicated in the western blot lane. Each epitope peptide was fused with a signal peptide (dashed line square) and a SLURP GPI-anchor protein (violet square). Full-length blots are presented in Supplementary Fig. S8.
Figure 3 Alanine scanning of SKM9-2 epitope. […] Cell lysates of transfected HEK293T (upper panel) or transfected ACC-MESO1 (lower panel) were resolved by 4–15% SDS-PAGE and analyzed by western blotting using SKM9-2. (b) S897A mutant of FLAG-tagged HEG1 in HEK293T was resolved by 4–15% SDS-PAGE and analyzed by western blotting using SKM9-2 (upper panel) or anti-FLAG mAb (lower panel). Native HEG1 in ACC-MESO4 and FLAG-tagged HEG1 without mutation in HEK293T were used as controls. Full-length blots are presented in Supplementary Fig. S9.
Sequences of tested HEG1 are shown in Supplementary Dataset. Full-length HEG1 cDNA was synthesized from total RNA purified with TRIzol reagent (Thermo Fisher Scientific) from ACC-MESO-4, using an oligo dT primer and SuperScript II RNase H reverse transcriptase (Thermo Fisher Scientific). cDNA encoding the HEG1 open reading frame was amplified by PCR using PrimeSTAR HS DNA Polymerase (Takara Bio Inc., Shiga, Japan). The HEG1 cDNA was cloned and inserted into the pcDNA3.1(−) mammalian expression vector (Thermo Fisher Scientific). For analyses of N-terminal truncation, we inserted mutants into pFLAG-CMV1 (Sigma-Aldrich Japan K.K., Tokyo, Japan). For analyses of C-terminal deletion lacking the transmembrane domain, we used mutants that were fused with a GPI-anchor protein, SLURP1-gpi[18], in pcDNA3.1(+) (Thermo Fisher Scientific) (Supplementary Dataset). Alanine substituted mutants were prepared using site directed mutagenesis. To produce a soluble epitope peptide, a modified HEG1 signal peptide and a C-terminal tag containing the FLAG tag plus a polyhistidine sequence were used in the mammalian expression vector pEF-BOS[39] (Supplementary Dataset). The plasmid constructs were transfected with Lipofectamine 3000 (Thermo Fisher Scientific). The HEG1 peptide-expressing 293 H clone was obtained by selection with geneticin (Thermo Fisher Scientific).
Monolayer cells were solubilized with 20 mM Tris buffer (pH 8.0) containing 1% SDS, 1 mM phenylmethylsulfonyl fluoride, 125 mU/mL Benzonase Nuclease (Merck Millipore Co., Tokyo, Japan) (25 µL/cm^2 culture surface area). The lysate (10 µL/lane) was resolved by SDS-PAGE under reducing conditions using 6% polyacrylamide gels or 4–15% precast gels (Bio-Rad Laboratories Inc., Hercules, CA, USA). […]

[2] = molecular target: SKM9-2; assay: SPR analysis of binding between SKM9-2 and soluble His-tagged minimum epitope peptides (SKMepmin); conditions: for Kd: His-tagged SKMepmin secreted from transfected HEK293T immobilized on Ni2+-binding sensor chip NTA, analyte 5 µg/mL SKM9-2, running buffer 10 mM HEPES pH 8.1, 150 mM NaCl, 0.005% Tween-20, 50 µM EDTA, read-out: KD (M), dissociation constant; for association rate between SKM9-2 and epitope peptide (in words) / dissociation rate between SKM9-2 and epitope peptide (in words): analyte 5 µg/mL SKM9-2, change caused by the substitution; for affinity of SKM9-2 in contrast to SKMepmin3 (in words): analyte 5 µg/mL SKM9-2, ligand on sensor chip NTA
Procedure: Figure 5 SPR analysis of the binding kinetics between SKM9-2 and mutants of minimum epitope. A soluble His-tagged mutant of minimum epitope (SKMepmin) was secreted from transfected HEK293T and immobilized as a ligand on the Ni^2+-binding sensor chip NTA. The upper sensorgrams show the binding kinetics of analyte (5 µg/mL of SKM9-2) to SKMepmins. The control without any peptide is shown as “No peptide” and the negative control peptide cycle is shown as “Control peptide”. The glycan-digested SKMepmin3 that was treated with Neuraminidase A and O-Glycosidase was used as the negative control peptide. The dissociation constant in the lower bar graph was calculated using the manufacturer’s instructions. RU, response units; Signal sequence, the artificial signal sequence (MAPLLLLLLPLLLLPPAAP).
Figure 7 SPR analysis of bindings of lectin and SKM9-2 to glycosidase-treated SKMepmin3. Purified SKMepmin3 was incubated with α2-3 Neuraminidase S, Neuraminidase A, or Neuraminidase A + O-Glycosidase; and then was immobilized as a ligand on Ni^2+-binding sensor chip NTA. The analytes were used at a concentration of 5 µg/mL. (a) ABA, (b) Jacalin, (c) rACG, (d) SKM9-2. Glycosidase-digested sample was not tested in the experiment with rACG.
Cell lysate or SKMepmin3 was treated with α2-3 Neuraminidase S, α2-3, 6, 8, 9 Neuraminidase A, and O-Glycosidase (New England Biolabs Japan, Tokyo, Japan) in 50 mM sodium phosphate (pH 7.5) containing 1% Nonidet P-40, according to the manufacturer’s instructions. The cell lysate sample was resolved by 4–15% or 6% SDS-PAGE under reducing conditions and detected by western blotting using SKM9-2. The analysis of the SKMepmin3 sample was performed by SPR.
The binding of SKM9-2 or lectin to SKMepmin was measured by SPR analysis. SKMepmin was diluted with a running buffer (10 mM HEPES buffer (pH 8.1) containing 150 mM NaCl and 0.005% Tween-20), flowed on Ni^2+-binding sensor chip NTA (GE Healthcare), and affinity-bound through His-tag as a ligand on the sensor chip. Binding analysis of SKM9-2 was performed in a running buffer containing 50 µM EDTA. A non-treated flow cell was used as a reference cell. SKM9-2, anti-sialyl Lewis^X (CSLEX1, Becton, Dickinson and Company Japan, Tokyo, Japan), rACG (Wako Pure Chemical Industries), biotinylated ABA (J-Oil Mills, Inc., Tokyo, Japan), or biotinylated Jacalin (Vector Laboratories, Inc., Burlingame, CA, USA) (each 5 µg/mL) was injected as an analyte with the running buffer. As a regeneration buffer, 350 mM EDTA was used. The dissociation constant was calculated using the manufacturer’s instructions.

| Molecule | recognition by SKM9-2 upon western blot analysis [1] | Kd [2] | association rate between SKM9-2 and epitope peptide (in words) [2] | affinity of SKM9-2 in contrast to SKMepmin3 (in words) [2] | dissociation rate between SKM9-2 and epitope peptide (in words) [2] |
| --- | --- | --- | --- | --- | --- |
| 7.62: 887-EKVITESKSPSLVSLPTEST-906 -SLURP GPI | clearly detected |  |  |  |  |
| 7.626: 887-EKVITESKSPSLVSLP-902 -SLURP GPI | weakly recognized |  |  |  |  |
| 7.627: 887-EKVITESKSPSLVS-900 -SLURP GPI | not bound |  |  |  |  |
| MAPLLLLLLPLLLLPPAAPGGAKAPSLVSLPAGGDYKDDDDKHHHHHHHH [SKMepmin4] |  | 1.15e-08 M | decreased | decreased |  |
| MAPLLLLLLPLLLLPPAAPGGSKAPALVSLPAGGDYKDDDDKHHHHHHHH [SKMepmin6] |  | 4.2e-08 M |  | decreased | increased |
| MAPLLLLLLPLLLLPPAAPGGSKAPSLVALPAGGDYKDDDDKHHHHHHHH [SKMepmin8] |  | 3.25e-08 M |  | decreased | increased |
| MAPLLLLLLPLLLLPPAAPGGSKAPSLVSLPTGGDYKDDDDKHHHHHHHH [SKMepmin2] |  | 6.22e-09 M | increased |  |  |
| MAPLLLLLLPLLLLPPAAPGGSKAPSLVTLPAGGDYKDDDDKHHHHHHHH [SKMepmin9] |  | 6.38e-09 M |  | restored | increased |
| MAPLLLLLLPLLLLPPAAPGGSKAPTLVSLPAGGDYKDDDDKHHHHHHHH [SKMepmin7] |  | 6.17e-08 M |  | further reduced |  |
| MAPLLLLLLPLLLLPPAAPGGSKSPSLVSLPTGGDYKDDDDKHHHHHHHH [SKMepmin1] |  | 8.75e-09 M |  |  |  |
| MAPLLLLLLPLLLLPPAAPGGTKAPSLVSLPAGGDYKDDDDKHHHHHHHH [SKMepmin5] |  | 2.9e-09 M | hardly influenced | restored | hardly influenced |
| B1 | recognized |  |  |  |  |
| B2 | recognized |  |  |  |  |
| B3 | recognized |  |  |  |  |
